Laboratory results taken from patent publication US20140309171A1, “MARKER FOR BLOOD COAGULATION” (Universite Catholique De Louvain, priority 2011, published 2014).
“Also recorded” adds a separate entry of the source.

What was measured:
Type in all cases: cell-based
[1] = tested on: activated conformation of αIIbβ3 on human platelets; assay: Flow cytometry, PAC-1 binding; conditions: 0.025 U/ml thrombin, 10 μM STO-609
Method: (§1) Flow cytometric analysis was performed on a FACScan (Becton Dickinson). Washed human platelets (2·10^5 platelets/μl) were pre-incubated with DMSO/STO-609 for 2 min and then treated with or without thrombin (0.025 U/ml) in the presence of excessive amounts of FITC-conjugated monoclonal antibody (anti-CD62P (BD Biosciences) or PAC-1 (BD Biosciences)) at room temperature. The samples were then fixed at 4° C. for 30 min with 2% paraformaldehyde. The levels of P-selectin expression and PAC1 binding were expressed as the percentages of cells positive for anti-CD62P and PAC-1, respectively. The negative cut-off for each antibody was set using resting platelets that gave less than 5% of cells positive for binding of anti-CD62P or PAC-1. In addition to aggregation measurements, we examined by flow cytometry STO-609 effects on PAC-1 binding, an antibody specific for the activated conformation of αIIbβ3. Platelets were activated by 0.025 U/ml thrombin in the absence or presence of 10 μM STO-609.

[2] = tested on: myosin light chain (MLC) Ser 19 phosphorylation; assay: Western blot of MLC Ser19 phosphorylation in human platelets; conditions: 0.1 U/ml thrombin, pre-incubation with STO-609
Method: (§2) Washed human platelets (used in in vitro studies). Platelets were obtained from adult healthy volunteers in accordance with the Ethics Commission of our institution (Commission d'Ethique Biomédicale Hospitalo-Facultaire, Université catholique de Louvain). Whole blood was collected with butterfly needle 21G into Sodium Citrate 1:10 solution (S-monovette). Platelet-rich plasma (PRP) was obtained by 15 min centrifugation at 330 g. The platelets pellet was then washed in Tyrode modified buffer (135 mM NaCl, 12 mM NaHCO3, 1 mM Sodium Citrate, 2.9 mM KCl, 0.3 mM Na2HPO4, 1 mM MgCl2, 5 mM D-glucose, 10 mM Hepes, 0.35% bovine serum albumin (BSA), pH 7.4 at 37° C.) and resuspended to a density of 2.5 10^5 platelets/μl for the measurement of intracellular Ca^2+ or platelet aggregation. […]
(§3) Proteins were separated as described (Miranda et al. 2010. J Clin Invest 103(6): 879-887). […] Bound antibodies were detected by enhanced chemiluminescence (Thermofisher). […] Band intensities were quantified by scanning and processing image intensities with the program ImageJ (1.33 for Mac OS X). The quantification of immunoblots presented in results was obtained after normalization using the internal loading control.

[3] = tested on: intracellular Ca2+ in human platelets; assay: Cytosolic Ca2+ measurement in fluo-3-loaded platelets; conditions: 10 μM STO-609, 0.1 U/ml thrombin, 1 mM extracellular Ca2+
Method: Platelets pelleted from the platelet-rich plasma were suspended in Ca^2+-free modified Tyrode's buffer and then incubated with 3 μM flou-3/acetoxymethyl ester (Santa Cruz Biotechnology) at 37° C. for 30 min. Probenecid 2.5 mM (Sigma-Aldrich) was added to the buffer throughout the experiments to prevent leakage of the dye. After 2 washings, fluo-3-loaded platelets were suspended in modified Tyrode's buffer at a concentration of 2 10^7 platelets/ml. They were then pre-incubated with 10 μM STO-609 in the presence of 1 mM extracellular Ca^2+ with stirring at 37° C. for 2 min before the addition of thrombin (0.1 U/ml). Fluorescence (excitation 505 nm, emission 530 nm) was measured with a spectrophotometer (AMINCO SPF500). Ca^2+ concentration as estimated as follows: Kd* (F−Fmin)/(Fmax−Fmin), where the Kd of Fluo-3 is ([…] at 37° C.). The minimal fluorescence (Fmin) is the fluorescence in the absence of Ca^2+ and Fmax is the fluorescence determined with ionomycin 1 μM.

[4] = tested on: VASP Thr 278 phosphorylation; assay: Western blot of VASP Thr278 phosphorylation in human platelets; conditions: 0.1 U/ml thrombin, pre-incubation with STO-609
Method: as §2, §3

[5] = tested on: cofilin Ser3 phosphorylation; assay: Western blot of cofilin Ser3 phosphorylation in human platelets; conditions: 0.1 U/ml thrombin, 10 μM STO-609, 10 min after thrombin exposure
Method: as §2, §3

[6] = tested on: P-selectin (CD62P) on human platelet surface; assay: Flow cytometry, P-selectin (CD62P) exposure, α-granule release; conditions: 0.025 U/ml thrombin, 10 μM STO-609
Method: as §1, with “addition, the effect of STO-609 on α-granule release was determined” for “addition to aggregation measurements, we examined”, “measuring the exposure” for “flow cytometry STO-609 effects”, “platelet surface” for “PAC-1 binding, an antibody specific for the activated conformation”, “P-selectin (CD62P).” for “αIIbβ3. Platelets were activated by 0.025 U/ml thrombin in the absence or presence of 10 μM STO-609.”

O=C(O)c1ccc2c3c1cccc3c(=O)n1c3ccccc3nc21 [STO-609]
PAC-1 binding in response to thrombin [1]: significantly inhibited | thrombin-induced MLC phosphorylation, effect of pre-incubation [2]: decreased significantly; also recorded: prevents | rise in Ca2+ concentration in response to thrombin [3]: did not modify | thrombin-induced VASP phosphorylation on Thr 278, effect of pre-incubation [4]: prevents | thrombin-induced cofilin phosphorylation, effect of pre-incubation [5]: significantly decreased; also recorded: prevents | CD62P detection per platelet in response to thrombin (α-granule release) [6]: significantly inhibited; also recorded: prevents
